Measured values taken from PubChem BioAssay AID2060602 (Molecular Pharmacology Branch, DTP, NCI, 2025).
Values joined by “and” are separate entries in the source; they are usually repeats but may differ in a detail not shown here. Identical values can stand only once. Each block holds one molecule with its values, some of them ahead of it.

Test system: 648629-189-R-J1-PDC complex spheroids viability
Experiment: Anticancer human tumor 648629-189-R-J1-PDC patient-derived bladder carcinoma cell line growth inhibition [CLK]
Details: for viability, T/C: stronger effect = lower value
From the text: A high-throughput screen of multi-cell type tumor spheroids was designed to identify active combinations of […] and targeted small molecules. Complex spheroids include a stromal component modeled by human endothelial cells (HUVEC) and fibroblasts modeled by human mesenchymal stem cells (MSCs). The concentration ranges selected for each drug and investigational agent were based upon clinically achievable concentrations if the clinical Cmax of the agent was known.
Compounds. The drugs and investigational agents: cirtuvivint (SM08502; NSC835563), CC-671 (NSC850746), vemurafenib (NSC761431), tapotoclax (NSC804041), sotorasib (NSC818433), adagrasib (NSC831453), MRTX-1133 (NSC836407), BAY2416964 (NSC825713), copanlisib (NSC816437), inavolisib (NSC800729), abemaciclib (NSC768073), osimertinib (NSC779217), entinostat (NSC756642), eltanexor (KPT-8602, NSC794443), venetoclax (NSC766270), ceralasertib (NSC777638), bortezomib (NSC756655), olaparib (NSC753686), talazoparib (NSC767125), alisertib (NSC759677), peposertib (NSC802822), gemcitabine (NSC613327), 5-fluorouracil (NSC19893), SN-38 (NSC673596), oxaliplatin (NSC266046), paclitaxel (NSC125973), and doxorubicin (NSC123127), were obtained from the National Cancer Institute (NCI) Developmental Therapeutics Program Chemical Repository. The FDA-approved anticancer drug set is available from the Developmental Therapeutics Program at https://dtp.cancer.gov/organization/dscb/obtaining/available plates.htm. […] The stock solutions were prepared in dimethyl sulfoxide (DMSO, Sigma-Aldrich, St. Louis, MO, cat. D2650), except for the platinum complexes which were prepared in saline (Quality Biological, Gaithersburg, MD, cat. 114-055-101), at 800-fold the tested concentration and stored at -70 degrees C prior to their use. All drugs and investigational agents were tested over a range starting from a high concentration at or near the clinical Cmax and decreasing in half-log increments. If the clinical Cmax for an agent had not been determined, the highest concentration tested was 10 microM.
Cell Culture. All cells were maintained in an incubator at 37 degrees C and 5% CO2 with 95% humidity. The PDC lines were cultured according to standard operating procedures established by the NCI PDMR. Briefly, all PDCs were thawed and cultured in Matrigel-coated flasks prepared with a working solution of 1X Ham's F-12 nutrient mix, without supplementation (Invitrogen, Waltham, MA, cat. 11765054), 100 U/mL penicillin-streptomycin (Invitrogen, cat. 15140122), and 2.5% Matrigel (Corning Inc., Corning, NY, cat. 354248) for the first three passages. The 947758-054-R-J2-PDC line was cultured in 6B/Colon 1A media, which includes advanced DMEM/F-12 (Thermo Fisher Scientific, cat. 12634028), 10 mM HEPES (Thermo Fisher Scientific, cat. 15630080), 1X GlutaMAX supplement (Thermo Fisher Scientific, cat. 35050061), 0.1 mg/mL primocin (InvivoGen, cat. ant-pm-2), 10% defined fetal bovine serum, heat inactivated (HyClone Laboratories Inc., cat. SH30070.03HI), 1.25 mM N-Acetyl-L-cysteine (Sigma-Aldrich, cat. A9165), 10 mM nicotinamide (Sigma-Aldrich, cat. N0636), 1X B-27 supplement (Thermo Fisher Scientific, cat. 17504044), 1X N-2 supplement (Thermo Fisher Scientific, cat. 17502048), and 10 microM Y-27632 dihydrochloride (Tocris Bioscience, cat. 1254). The 876862-298-R-J1-PDC was cultured in 6E media, which includes all 6B/Colon 1A media components plus 50% L-WRN conditioned media (ATCC, cat. CRL-3276), 50 ng/mL recombinant human EGF recombinant protein (hEGF; Thermo Fisher Scientific, cat. PHG0311), 10 ng/mL recombinant human fibroblast growth factor 10 (hGFG-10; PeproTech, cat. 100-26), 1 ng/mL recombinant human fibroblast growth factor 2 (hFGF-2; PeproTech, cat. 100-18B), and 1 µM prostaglandin E2 (PGE2; Tocris, cat. 2296). The 227483-062-R1-J1-PDC line was cultured in Panc media, containing all 6E components except hFGF-2, with the addition of 500 nM SB-431542 (Selleckchem, cat. S1067) and 10 nM gastrin (Tocris, cat. 3006). […]
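Throughout, for viability, T/C: drug exposure lasted seven days before viability readout; 100% = DMSO vehicle control wells.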

IC50 (curve of compound): < 31.6 nM
SMILES: CC(=O)O[C@H]1C(=O)[C@@]2(C)[C@H]([C@H](OC(=O)c3ccccc3)[C@]3(O)C[C@H](OC(=O)[C@H](O)[C@@H](NC(=O)c4ccccc4)c4ccccc4)C(C)=C1C3(C)C)[C@]1(OC(C)=O)CO[C@@H]1C[C@@H]2O
viability, T/C (compound 0.0316 µM): 10.4% and 11.2%
viability, T/C (compound 0.1 µM): 10.1% and 12.7%
viability, T/C (compound 0.316 µM): 10.1% and 11.7%
viability, T/C (compound 1 µM): 12.9% and 13.5%
viability, T/C (compound 3.16 µM): 10.8% and 10.5%
viability, T/C (compound 10 µM): 13.3% and 15.2%

IC50 (curve of compound): 7050 nM and 6680 nM
SMILES: COc1ccc([C@@H](O)c2cc(-c3ncnc4cc(N5CCOCC5)ccc34)c(F)cc2Cl)nn1
viability, T/C (compound 0.0316 µM): 92.5% and 93.4%
viability, T/C (compound 0.1 µM): 94.4% and 108%
viability, T/C (compound 0.316 µM): 94.7% and 89.7%
viability, T/C (compound 1 µM): 75.6% and 85%
viability, T/C (compound 3.16 µM): 74.8% and 70%
viability, T/C (compound 10 µM): 40.1% and 39.5%

IC50 (curve of compound): < 31.6 nM
SMILES: COc1cccc2c1C(=O)c1c(O)c3c(c(O)c1C2=O)CC(O)(C(=O)CO)CC3OC1CC(N)C(O)C(C)O1 (stereo not drawn)
viability, T/C (compound 0.0316 µM): 32.3% and 23%
viability, T/C (compound 0.1 µM): 16.2%
viability, T/C (compound 0.316 µM): 7.93% and 6.42%
viability, T/C (compound 1 µM): 0.61% and 0.54%
viability, T/C (compound 3.16 µM): 0.12% and 0.15%
viability, T/C (compound 10 µM): 0.13% and 0.14%

SMILES: C=CC(=O)N1CCN(c2nc(=O)n(-c3c(C)ccnc3C(C)C)c3nc(-c4c(O)cccc4F)c(F)cc23)C(C)C1 (stereo not drawn) + CN1CCN(c2cc(C(=O)Nc3cc4cc(-c5cnn(C)c5)ccc4cn3)ccn2)CC1
IC50 (curve of first compound, second compound 0.0316 µM): > 10000 nM
IC50 (curve of first compound, second compound 0.1 µM): > 10000 nM
IC50 (curve of first compound, second compound 0.316 µM): 1030 nM
IC50 (curve of first compound, second compound 1 µM): < 31.6 nM
IC50 (curve of first compound, second compound 3.16 µM): < 31.6 nM
IC50 (curve of first compound, second compound 10 µM): < 31.6 nM
viability, T/C (second compound 0.0316 µM, first compound 0.0316 µM): 109%
viability, T/C (second compound 0.0316 µM, first compound 0.1 µM): 113%
viability, T/C (second compound 0.0316 µM, first compound 0.316 µM): 104%
viability, T/C (second compound 0.0316 µM, first compound 1 µM): 115%
viability, T/C (second compound 0.0316 µM, first compound 3.16 µM): 108%
viability, T/C (second compound 0.0316 µM, first compound 10 µM): 89%
viability, T/C (second compound 0.1 µM, first compound 0.0316 µM): 89.6%
viability, T/C (second compound 0.1 µM, first compound 0.1 µM): 99.5%
viability, T/C (second compound 0.1 µM, first compound 0.316 µM): 99.4%
viability, T/C (second compound 0.1 µM, first compound 1 µM): 114%
viability, T/C (second compound 0.1 µM, first compound 3.16 µM): 98.9%
viability, T/C (second compound 0.1 µM, first compound 10 µM): 102%
viability, T/C (second compound 0.316 µM, first compound 0.0316 µM): 47.3%
viability, T/C (second compound 0.316 µM, first compound 0.1 µM): 55.5%
viability, T/C (second compound 0.316 µM, first compound 0.316 µM): 50.5%
viability, T/C (second compound 0.316 µM, first compound 1 µM): 50.4%
viability, T/C (second compound 0.316 µM, first compound 3.16 µM): 38%
viability, T/C (second compound 0.316 µM, first compound 10 µM): 20.2%
viability, T/C (second compound 1 µM, first compound 0.0316 µM): 0.58%
viability, T/C (second compound 1 µM, first compound 0.1 µM): 0.57%
viability, T/C (second compound 1 µM, first compound 0.316 µM): 0.3%
viability, T/C (second compound 1 µM, first compound 1 µM): 0.5%
viability, T/C (second compound 1 µM, first compound 3.16 µM): 0.34%
viability, T/C (second compound 1 µM, first compound 10 µM): 0.13%
viability, T/C (second compound 3.16 µM, first compound 0.0316 µM): 0.13%
viability, T/C (second compound 3.16 µM, first compound 0.1 µM): 0.17%
viability, T/C (second compound 3.16 µM, first compound 0.316 µM): 0.14%
viability, T/C (second compound 3.16 µM, first compound 1 µM): 0.13%
viability, T/C (second compound 3.16 µM, first compound 3.16 µM): 0.11%
viability, T/C (second compound 3.16 µM, first compound 10 µM): 0.11%
viability, T/C (second compound 10 µM, first compound 0.0316 µM): 0.15%
viability, T/C (second compound 10 µM, first compound 0.1 µM): 0.19%
viability, T/C (second compound 10 µM, first compound 0.316 µM): 0.16%
viability, T/C (second compound 10 µM, first compound 1 µM): 0.18%
viability, T/C (second compound 10 µM, first compound 3.16 µM): 0.22%
viability, T/C (second compound 10 µM, first compound 10 µM): 0.15%
